Results: paper PMC13411385, “Methyl on the Bridge: 2‐Methyl Propellane as Precursor for 1,3‐Substituted 2‐Methylated Bicyclo[1.1.1]Pentanes” (Chemistry (Weinheim an Der Bergstrasse, Germany), 2025)

Key:
[1] = set-up: method as in PMID 31894985; details: between 2,2‐difluorobutanol and 2,2‐difluoropentanol; cited from earlier work
[2] = octanol‐water partition coefficient (logP) by 19F NMR‐based protocol; format: physicochemical; details: for logP: measured octanol‐water partition coefficient, 19F NMR‐based protocol; for increase in lipophilicity on addition of a methyl group: methylated compound vs its nonmethylated analogue (46a vs 46b; 47a vs 47b)
Excerpt: The effect of the added bridge‐methyl group on physicochemical properties was investigated.
Figure 2 Comparison of measured octanol‐water partition coefficients between phenyl, tolyl, BCP, and 2‐MeBCP.

Row | logP [2] | increase in lipophilicity on addition of a methyl group [2] [logP units] | SMILES | ΔlogP [1] [logP units]
1 | 2.03 | 0.46 | Cc1ccccc1C(F)(F)CO [47a, 2,2‐difluoro‐2‐(o‐tolyl)ethan‐1‐ol] | 
2 | 1.57 |  | OCC(F)(F)c1ccccc1 [47b, 2,2‐difluoro‐2‐phenylethan‐1‐ol] | 

Second part, the compound before the results:

Row | SMILES | logP [2] | increase in lipophilicity on addition of a methyl group [2] [logP units] | ΔlogP [1] [logP units]
3 | CCCC(F)(F)CO [2,2‐difluoropentanol] |  |  | 0.58
4 | CC1C2CC1(C(F)(F)CO)C2 (stereo not shown) [46a, 2,2‐difluoro‐2‐(2‐methylbicyclo[1.1.1]pentan‐1‐yl)ethan‐1‐ol] | 2.11 | 0.54 | 
5 | OCC(F)(F)C12CC(C1)C2 [46b, 2‐(bicyclo[1.1.1]pentan‐1‐yl)‐2,2‐difluoroethan‐1‐ol] | 1.57 |  | 
